Results published in patent US12358923B2, “Seminaphthofluorophore-selenium probes for thioredoxin reductase” (Portland State University, priority 2019, dated 2025).

Columns and labels:
TrxR1 from rat liver = molecular target: T1, TrxR1 from rat liver (Rattus norvegicus, UniProt O89049); assay: TrxR1 enzymatic assay and kinetic study (fluorescence increase, NADPH depletion); assay type: biochemical
T1 construct: from tissue; host or cells: rat liver
T1 sequence (O89049 1-499): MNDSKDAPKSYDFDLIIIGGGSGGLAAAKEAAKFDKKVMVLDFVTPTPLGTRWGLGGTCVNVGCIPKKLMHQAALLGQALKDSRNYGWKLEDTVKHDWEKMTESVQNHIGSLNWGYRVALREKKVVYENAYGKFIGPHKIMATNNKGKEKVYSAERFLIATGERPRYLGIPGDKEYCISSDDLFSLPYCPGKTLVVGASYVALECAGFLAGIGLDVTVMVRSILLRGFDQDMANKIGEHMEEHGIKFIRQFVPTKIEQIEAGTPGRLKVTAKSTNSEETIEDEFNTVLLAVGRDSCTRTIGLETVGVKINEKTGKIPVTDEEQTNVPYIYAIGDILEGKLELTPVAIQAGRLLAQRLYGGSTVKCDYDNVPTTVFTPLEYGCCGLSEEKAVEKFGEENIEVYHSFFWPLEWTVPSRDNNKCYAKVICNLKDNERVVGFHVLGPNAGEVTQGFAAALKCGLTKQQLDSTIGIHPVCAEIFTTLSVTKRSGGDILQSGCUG
Description: Enzymatic assays were carried out using TrxR1 from rat liver in the presence of 20 μM probe 1, 10 mM EDTA, 0.2 mg/mL BSA, and 0.24 mM NADPH in phosphate buffer (100 mM, pH 7.4). This solution was pipetted into four different wells in a 96-well plate. 0.03, 0.06 and 0.12 units of TrxR1 were added to different reaction mixtures. Control experiments were set up by omitting either probe 1, NADPH or TrxR1 from the mixtures. After all the reagents had been mixed, the wells were immediately monitored for change in fluorescence (λex=531 nm; λem=580 nm) and NADPH absorbance (λabs,max 340 nm). TrxR1 activity was monitored via fluorescence emission increase of probe 1 (λex=531 nm; λem=580 nm) as well as the depletion of NADPH (λabs=340 nm) upon incubation. Reactions were monitored in black 96-well plates with clear bottoms using a fluorescence plate reader. NADPH and TrxR1 were both required for the conversion of probe 1 to compound 2 and the concomitant turn-on emission (FIG. 2). […] The proposed mechanism for the reaction of probe 1 in the presence of TrxR1 and NADPH is shown in Scheme 7. Nucleophilic attack of the diselenide occurs through the TrxR1 […] residue. The selenolate formed attacks the carbamate carbonyl, and an oxaselenolanone heterocycle and the fluorescent probe 2 are released.
Kinetic studies were carried out for six reaction mixtures with varying amounts (1-20 μM) of probe 1 over 20 min. Reaction mixtures were made with concentrations of: TrxR1 0.12 units, 100 mM phosphate buffer, pH 7.4; 10 mM EDTA, 0.2 mg/mL BSA and 0.24 mM NADPH. 1 was added at different concentrations in the reaction mixture: 20 μM, 10 μM, 5 μM, 3 μM, 1 μM and 0 μM. The reaction was monitored through the change in fluorescence (λex=531 nm; λem=580 nm) and a fluorescence vs time graph was plotted for each substrate concentration (FIG. 3). […] The fluorescence data also was plotted as a reaction rate vs substrate concentration graph (FIG. 4).

[1] = tested on: SK-MEL-5 melanoma cell line; assay: MTS cytotoxicity assay (CellTiter 96 Aqueous One Solution); assay type: cell-based; settings: Homo sapiens, SK-MEL-5 cells
Description: (§1) MTS cytotoxicity assays for probe 1 were carried out using the CellTiter 96® Aqueous One Solution Cell Proliferation Assay (Promega Corporation, Madison, WI), with A375 and SK-MEL-5 melanoma cell lines. The following treatment groups were made:
(§2) The IC50 is the probe concentration required to kill 50% of the cells in the specified time period.

A375 melanoma cell line = assay: as above; assay type: cell-based; settings: Homo sapiens, A-375, A375 cells
Description: as §1, §2

[2] = Maximum absorbance and emission wavelengths of the seminaphthofluorophore scaffolds; assay type: physicochemical; settings: seminaphthofluorophore scaffold (without the diselenide moiety/moieties) of the compound; 10% DMSO, 100 mM phosphate buffer, pH 7.4
Description: Initial absorbance measurements were performed on a Cary Eclipse™ 50 Bio UV-Vis spectrophotometer. Fluorescence measurements were performed on a Cary Eclipse™ fluorescence spectrophotometer (Agilent Technologies, Santa Clara, CA).

[3] = Selectivity against other biological thiols and ions (fluorescence response); assay type: biochemical; settings: 20 μM probe, 20 minutes; 100 μM Na2S, Na2SO3, Na2SO4, Na2S2O3, Hcy, Cys or 1 mM GSH; phosphate buffer pH 7.4
Description: The selectivity of TrxR1 for probe 1 was evaluated against other biological thiols and ions. Probe 1, at a concentration of 20 μM, was incubated for 20 minutes with 0.12 units TrxR1, 100 μM Na2S, 100 μM Na2SO3, 100 μM Na2SO4, 100 μM Na2S2O3, 100 μM homocysteine (Hcy), 100 μM cysteine (Cys), or 1 mM glutathione (GSH) in 100 mM phosphate buffer, pH 7.4; 10 mM EDTA, 0.2 mg/mL BSA and 0.24 mM NADPH.

[4] = Turn-on response of probe on reduction of the diselenide with dithiothreitol (DTT); settings: 10 μM probe
Description: To determine if determine if probe 1 would elicit a turn-on response, dithiothreitol (DTT) was used to reduce the diselenide into the selenolate. DTT is known to reduce both disulfides and diselenides. Excitation and emission spectra were obtained for a 10 μM solution of 1 in 0.3% DMSO, 0.2% NP-40 (nonyl phenoxypolyethoxylethanol), 1 mM EDTA, and 50 mM Tris buffer, pH 7.4, initially without DTT and then with an equimolar amount of DTT (FIG. 1).
To investigate the reactivity and optical responses of probe 1, an aqueous solution of 10 μM probe 1, 10 μM DTT in 0.3% DMSO, 0.2% NP-40, 1 mM EDTA and 50 mM Tris buffer, pH 7.4 was prepared. DTT is a powerful reducing agent for both diselenides and disulfides and might be expected to react with probe 1 by a mechanism similar to the TrxR1 enzyme. […] Excitation at 531 nm afforded emission with a λmax at 580 nm, as expected for the formation of compound 2, which was also monitored by HPLC-MS.

[5] = equimolar DTT, 0.3% DMSO, 0.2% NP-40, 1 mM EDTA, 50 mM Tris buffer, pH 7.4

## COc1cccc2ccc3c(c12)Oc1cc(NC(=O)OCC[Se][Se]CCO)ccc1C31OC(=O)c2ccccc21 (stereo not drawn) [Probe 1]
TrxR1 from rat liver; 20 μM probe, 0.12 units TrxR, 0.24 mM NADPH, phosphate buffer pH 7.4, λex 531 nm, λem 580 nm
  Time at which fluorescence intensity began to plateau: 20 min
TrxR1 from rat liver; 20 μM probe, control omitting NADPH or TrxR1
  Fluorescence in the absence of NADPH or TrxR: no fluorescence was observed
TrxR1 from rat liver; 1-20 μM probe, 0.12 units TrxR1, 0.24 mM NADPH, 100 mM phosphate buffer pH 7.4, 20 min
  Km: 15.9 µM
[1]; 24 hours
  IC50: 4.77 µM
[1]; 48 hours
  IC50: 3.1 µM
[1]; 72 hours
  IC50: 2.3 µM
A375 melanoma cell line; 24 hours
  IC50: 3.53 µM
A375 melanoma cell line; 48 hours
  IC50: 2.23 µM
A375 melanoma cell line; 72 hours
  IC50: 2.55 µM
[2]
  λmax, abs (nm): 531 nm
  λmax, em (nm): 580 nm
[3]
  Change in fluorescence with other thiols and ions compared with TrxR1: None afforded a significant change in fluorescence
[4]; 10 μM DTT, Tris buffer pH 7.4, excitation at 531 nm, formation of compound 2
  Emission λmax after addition of DTT: 580 nm
[4]; [5]
  Colour change of solution with DTT: colorless to red
  Fluorescence turn-on response with DTT: instantaneous turn-on response
